Usually EC50 stands for the midpoint of the concentration-response curve.

Square brackets hold non-standard residues; d marks the D form. Peptide text beside a SMILES is read from it. Gly(Nα-CH2CH2CONH2) = NC(=O)CCNCC(=O)O; dNMeY = CN[C@H](Cc1ccc(O)cc1)C(=O)O; NMehLeu = CN[C@@H](CCC(C)C)C(=O)O; NMeF = CN[C@@H](Cc1ccccc1)C(=O)O; NMeQ = CN[C@@H](CCC(N)=O)C(=O)O; Tic = O=C(O)[C@@H]1Cc2ccccc2CN1; NMeL = CN[C@@H](CC(C)C)C(=O)O

The first assay has as its target T1, human Chemokine like receptor 1 (Homo sapiens, UniProt Q99788).
T1 construct: host or cells: U2OS (Tango CMKLR1-bla U2OS)
T1 sequence (Q99788 1-373): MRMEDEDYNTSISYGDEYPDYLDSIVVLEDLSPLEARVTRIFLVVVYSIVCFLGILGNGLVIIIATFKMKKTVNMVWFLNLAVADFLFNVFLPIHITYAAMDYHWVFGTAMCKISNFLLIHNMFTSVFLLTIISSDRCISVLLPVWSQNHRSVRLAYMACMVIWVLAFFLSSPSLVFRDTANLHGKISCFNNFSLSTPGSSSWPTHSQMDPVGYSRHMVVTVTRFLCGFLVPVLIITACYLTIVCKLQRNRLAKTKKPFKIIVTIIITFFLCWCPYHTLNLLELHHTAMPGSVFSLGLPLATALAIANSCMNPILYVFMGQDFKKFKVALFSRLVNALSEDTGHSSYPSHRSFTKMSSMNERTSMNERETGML
Description: Activation of Tango CMKLR1-bla U2OS cells (beta-lactamase FRET reporter).
Details: not given
It counts as cell-based. The protocol: The polypeptide sequences described above are the polypeptide sequences disclosed in the patent JP2010-229093A of BANYU PHARMA CO LTD: (D-Tyr)-Phe-Leu-Pro-(D-Ser)-Gln-Phe-(D-Ala)-Tic-Ser was used as a positive control (SEQ ID NO: 102).
The activation of the compound on Tango™ CMKLR1-bla U2OS cells (Invitrogen Cat. nos. K1551) was tested.
The activation of each compound in the above experiments on Tango™ CMKLR1-bla U2OS cells was determined as follows:
Day 1: Cell Seeding on Plate
2. The medium was removed, and the cells were washed with DPBS twice, followed by addition of 3 mL of 0.05% trypsin, and placed in a 37° C., 5% CO2 incubator (Thermo Fisher, Waltham, Massachusetts, USA) for 3-5 minutes. After the cells were rounded, 3-5 mL of medium (medium formula: DMEM 90%, Dialyzed FBS 10%, NEAA 0.1 mM, HEPES (pH 7.3) 25 mM, Penicillin 100 U/mL, Streptomycin 100 μg/mL) was added to terminate digestion.
2. The digested cells were transferred to a 15 mL centrifuge tube (430790, Corning), centrifuged at 1000 rpm for 5 minutes (5810R, Eppendorf, Hamburg, Germany), and the supernatant was discarded.
3. 7 mL of medium (DMEM+10% FBS) was added, blowed into a single cell suspension, counted by a cell counter, and adjusted the cell suspension to a desired cell density of 250,000/mL with the medium.
4. The cell suspension was seeded into a 384-well cell plate (Corning 3712) in 40 μL/well to make the number of cells 10000 cells/well, and 32 μL of medium was added to the blank control.
5. The incubation was performed overnight at 37° C. under 5% CO2.
Day 2: Dosing and Testing
1. Preparation of 200× Compound Plate
1.1 The test compound was formulated into a 10 mM working solution in DMSO.
1.2 45 μL of 10 mM test compound was added to the 2nd column of rows A to P in the Echo-384 well plate. The compound was subjected to a 3-fold dilution with Precision (30 μL of DMSO was added to the 3rd to 11th columns; 15 μL of the drug solution was pipetted from the 2nd column to the 3rd column, blown and evenly mixed; then 15 μL of the drug solution was pipetted from the 3rd column to the 4th column, blown and evenly mixed; the drugs was subjected to a 3-fold dilution to obtain 10 concentrations in total). The 1st and 12th columns of the Echo-384 well plate were supplemented with 30 μL of DMSO.
2. Preparation of Intermediate Plate
500 nL, i.e., 0.5 μL of the diluted compound (or DMSO) in the 200× compound plate was transferred into the corresponding position of V-bottom 384-well plate with Echo. 20 μL of medium was added to each well, centrifuged, shaken and evenly mixed. The concentration of the drugs in each well of the 2nd to 11th column of intermediate plate (i.e., 5× compound plate) were shown in following Table 4.
3.1 The cell plate was taken out from the incubator and observed under a microscope. The diluted compound or DMSO in the intermediate plate was added to the cell plate in 10 μL/well in the corresponding cell plate, and 40 μL of medium was pre-filled in each well.
3.2 The cells were incubated at 37° C. under 5% CO2 for 4 hours.
4.1 1 mM CCF4-AM, solution B, Solution C, and Solution D were used to prepare an appropriate amount of 6× detection solution. The LiveBLAzer™-FRET B/G Loading kit (K1095, Thermo Fisher, Waltham, Massachusetts, USA) kit containing CCF-4AM and solutionB, solutionC, and solutionD was also purchased from invitrogen (K1157, Thermo Fisher, Waltham, Massachusetts, USA).
4.2 The cells were observed under a microscope and the cell plate was equilibrated to room temperature.
4.3 6 μL of CCF-4AM dissolved solution A, 60 μL of solution B, 904 μL of solution C and 30 μL of solution D were pipetted in an EP tube, blown, and evenly mixed to obtain a 6× detection solution. The prepared 6× detection solution was pipetted to a 384-well plate in 10 μL/well.
For `CC(C)CC[C@@H](C(=O)N1CCC[C@H]1C(=O)N[C@H](CO)C(=O)N[C@@H](CCC(N)=O)C(=O)N[C@@H](Cc1ccccc1)C(=O)N[C@H](C)C(=O)N1Cc2ccccc2C[C@H]1C(=O)N[C@@H](CO)C(=O)O)N(C)C(=O)[C@H](Cc1ccccc1)NC(=O)[C@H](N)Cc1ccc(O)cc1` [YW-101, (D-Tyr)-Phe-(NMe-HoLeu)-Pro-(D-Ser)-Gln-Phe-(D-Ala)-Tic-Ser-OH] (H-[dY]F[NMehLeu]P[dS]QF[dA][Tic]S-OH), a half-maximal response (EC50) required 2.9 nM.

The assay is the same for the next values; noted with them: determination by the method of Effect Embodiment 1; read-out: EC50.
For `CC(C)C[C@@H](C(=O)N1CCC[C@H]1C(=O)N[C@H](CO)C(=O)N[C@@H](CCC(N)=O)C(=O)N[C@@H](Cc1ccccc1)C(=O)N[C@H](C)C(=O)N1Cc2ccccc2C[C@H]1C(=O)N[C@@H](CO)C(=O)O)N(C)C(=O)[C@H](Cc1ccccc1)NC(=O)[C@H](N)Cc1ccc(O)cc1` [YW-98, (D-Tyr)-Phe-(NMe-Leu)-Pro-(D-Ser)-Gln-Phe-(D-Ala)-Tic-Ser-OH] (H-[dY]F[NMeL]P[dS]QF[dA][Tic]S-OH), the concentration for a half-maximal effect (EC50) worked out at 3 nM.
Still for that read-out and setting: in the case of `C[C@@H](NC(=O)[C@H](Cc1ccccc1)NC(=O)[C@H](CCC(N)=O)NC(=O)[C@@H](CO)NC(=O)[C@@H]1CCCN1C(=O)[C@H](Cc1ccccc1)N(C)C(=O)[C@H](Cc1ccccc1)NC(=O)[C@H](N)Cc1ccc(O)cc1)C(=O)N1Cc2ccccc2C[C@H]1C(=O)N[C@@H](CO)C(=O)O` [YW-100, (D-Tyr)-Phe-(NMe-Phe)-Pro-(D-Ser)-Gln-Phe-(D-Ala)-Tic-Ser-OH] (H-[dY]F[NMeF]P[dS]QF[dA][Tic]S-OH) it was 42 nM; in that of `CN[C@H](Cc1ccc(O)cc1)C(=O)N[C@@H](Cc1ccccc1)C(=O)N[C@@H](CC(C)C)C(=O)N1CCC[C@H]1C(=O)N[C@H](CO)C(=O)N[C@@H](CCC(N)=O)C(=O)N[C@@H](Cc1ccccc1)C(=O)N[C@H](C)C(=O)N1Cc2ccccc2C[C@H]1C(=O)N[C@@H](CO)C(=O)O` [YW-103, (D-NMe-Tyr)-Phe-Leu-Pro-(D-Ser)-Gln-Phe-(D-Ala)-Tic-Ser-OH] (H-[dNMeY]FLP[dS]QF[dA][Tic]S-OH; N-terminus assumed), 9.4 nM.
The same measure, in the same setting: in the case of `CC(C)C[C@H](NC(=O)[C@H](Cc1ccccc1)N(C)C(=O)[C@H](N)Cc1ccc(O)cc1)C(=O)N1CCC[C@H]1C(=O)N[C@H](CO)C(=O)N[C@@H](CCC(N)=O)C(=O)N[C@@H](Cc1ccccc1)C(=O)N[C@H](C)C(=O)N1Cc2ccccc2C[C@H]1C(=O)N[C@@H](CO)C(=O)O` [YW-104, (D-Tyr)-(NMe-Phe)-Leu-Pro-(D-Ser)-Gln-Phe-(D-Ala)-Tic-Ser-OH] (H-[dY][NMeF]LP[dS]QF[dA][Tic]S-OH) it was 80 nM; in that of `CC(C)C[C@@H](C(=O)N1CCC[C@H]1C(=O)N[C@H](CO)C(=O)N[C@@H](CCC(N)=O)C(=O)N[C@@H](Cc1ccccc1)C(=O)N[C@H](C)C(=O)N1Cc2ccccc2C[C@H]1C(=O)N[C@@H](CO)C(=O)O)N(C)C(=O)[C@H](Cc1ccccc1)N(C)C(=O)[C@H](N)Cc1ccc(O)cc1` [YW-105, (D-Tyr)-(NMe-Phe)-(NMe-Leu)-Pro-(D-Ser)-Gln-Phe-(D-Ala)-Tic-Ser-OH] (H-[dY][NMeF][NMeL]P[dS]QF[dA][Tic]S-OH; N-terminus assumed), 10.6 nM.
For `CC(C)C[C@H](NC(=O)[C@H](Cc1ccccc1)NC(=O)[C@H](N)Cc1ccc(O)cc1)C(=O)N1CCC[C@H]1C(=O)N[C@H](CO)C(=O)N(C)[C@@H](CCC(N)=O)C(=O)N[C@@H](Cc1ccccc1)C(=O)N[C@H](C)C(=O)N1Cc2ccccc2C[C@H]1C(=O)N[C@@H](CO)C(=O)O` [YW-107, (D-Tyr)-Phe-Leu-Pro-(D-Ser)-(NMe-Gln)-Phe-(D-Ala)-Tic-Ser-OH] (H-[dY]FLP[dS][NMeQ]F[dA][Tic]S-OH), the EC50 was > 50000 nM.
Turning to `CC(C)C[C@H](NC(=O)[C@H](Cc1ccccc1)NC(=O)[C@H](N)Cc1ccc(O)cc1)C(=O)N1CCC[C@H]1C(=O)N[C@H](CO)C(=O)N(CCC(N)=O)CC(=O)N[C@@H](Cc1ccccc1)C(=O)N[C@H](C)C(=O)N1Cc2ccccc2C[C@H]1C(=O)N[C@@H](CO)C(=O)O` [YW-108, (D-Tyr)-Phe-Leu-Pro-(D-Ser)-NGln-Phe-(D-Ala)-Tic-Ser-OH] (H-[dY]FLP[dS][Gly(Nα-CH2CH2CONH2)]F[dA][Tic]S-OH), the EC50 was > 50000 nM.

Source of the values: US12129312B2, “Peptide compound, application thereof and composition containing same” (priority 2017, dated 2024).
